According to patent US5508273A, “Substituted phosphonic acids and derivatives useful in treating bone wasting diseases” (priority 1993, dated 1996):
Read-outs that look alike come from different tables or passages of the source.

Tests used:
[1] = target: T1, Human osteoclastic acid phosphatase (OAP) (Homo sapiens, UniProt P13686); assay: Osteoclastic Acid Phosphatase (OAP) inhibition; assay type: biochemical; conditions: for inhibition at 100 µM: read-out: OAPase % Inh@100 uM
T1 construct: purified from hairy cell leukemia spleen; from tissue; host or cells: human hairy cell leukemia spleen
T1 sequence (P13686 22-325): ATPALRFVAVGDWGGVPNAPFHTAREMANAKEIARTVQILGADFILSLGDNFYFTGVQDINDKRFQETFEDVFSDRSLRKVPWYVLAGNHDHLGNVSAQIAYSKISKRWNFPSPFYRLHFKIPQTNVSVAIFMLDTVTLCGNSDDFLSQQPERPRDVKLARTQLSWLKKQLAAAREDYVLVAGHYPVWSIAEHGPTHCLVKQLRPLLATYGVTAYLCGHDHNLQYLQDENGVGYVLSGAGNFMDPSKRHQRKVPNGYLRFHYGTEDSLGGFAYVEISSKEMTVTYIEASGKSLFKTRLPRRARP
Method: Inhibitors of the enzyme are involved with the stimulation of osteoblast cell proliferation in cell culture which is predictive of enhancement of bone mass and bone formation in vivo. Inhibitors of osteoclastic acid phosphatase prevent the resorptive action of osteoclasts and thereby prevent the degradation of bone mass associated with osteoporosis.
The enzyme was stored at -80° C. and was diluted in 50 mM, pH 5.0, sodium acetate buffer prior to use. Test compounds were dissolved in ethanol, DMSO, or water and tested at 100 μM. The assay measures the ability of the enzyme to dephosphorylate methylumbelliferone phosphate to the product, methylumbelliferone, which is fluorescent. The enzyme assay is performed in 50 mM, pH 5.0, sodium acetate buffer as follows: 5 μL of compound was added to 150 μL Of buffered enzyme solution. […] The reaction was performed at room temperature at pH=5.0 and terminated after 20 minutes by the addition of 50 μL of 4N NaOH. The reaction product, methylumbelliferone, was measured by fluorescence determination using a Dynatech Microfluor Fluorescence detector.

[2] = target: T2, human prostatic tyrosyl phosphatase (Homo sapiens, UniProt P15309); assay: biochemical; conditions: 30 minutes at 37° C., pH 5.5, (14C)-phosphotyrosine substrate; read-out: Tyr-Pase IC50
T2 construct: purchased Sigma Chemical Co
T2 sequence (P15309 33-386): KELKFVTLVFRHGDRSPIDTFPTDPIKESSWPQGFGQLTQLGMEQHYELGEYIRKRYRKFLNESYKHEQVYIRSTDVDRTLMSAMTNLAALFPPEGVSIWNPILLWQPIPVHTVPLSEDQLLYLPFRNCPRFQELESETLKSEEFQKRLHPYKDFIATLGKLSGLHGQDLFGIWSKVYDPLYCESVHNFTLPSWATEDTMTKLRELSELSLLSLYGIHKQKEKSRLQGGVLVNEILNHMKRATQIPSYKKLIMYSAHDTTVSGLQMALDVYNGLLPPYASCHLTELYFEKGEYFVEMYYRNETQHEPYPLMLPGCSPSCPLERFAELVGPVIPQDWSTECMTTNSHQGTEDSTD
Method: Inhibition of the activity of tyrosyl protein phosphatase was evaluated by incubating an aliquot of purified human prostatic tyrosyl protein acid phosphatase (Sigma Chemical Co.) with radiolabeled phosphotyrosine. The radiolabeled substrate, (^14 C)-phosphotyrosine, is separated from the product, (^14 C)-tyrosine by ion exchange chromatography and the production of radiolabeled tyrosine is quantified. Test compounds are screened at a concentration of one micromolar to 1 nM. The ability of test compounds to inhibit tyrosyl phosphatase was expressed as the % inhibition at the highest concentration of test compound tested and/or as the IC50 in Table 1.
The test compounds were incubated in the presence of tyrosyl acid phosphatase and radiolabeled substrate {(^14 C)-phosphotyrosine, (NEN Dupont Custom Synthesis)} plus cold O-phospho-L-tyrosine{(10 uM) (Sigma Chemical Co.)} in a 0.05 mM sodium acetate buffer (pH 5.5) for 30 minutes at 37° C. […] The incubation mixture was passed over an ion-exchange column {(Ag 1-X8) (Bio-Rad Laboratories)} and washed with 2.5 ml of distilled, deionized water. The total column effluent containing the radiolabeled product (^14 C-tyrosine) was collected and quantified by liquid scintillation spectroscopy. The test compounds IC50 was calculated using a quantal (all-or-none) dose-response calculation.

[3] = pH 5.0, room temperature, 20 minutes
[4] = pH 5.0, room temperature, 20 minutes, read-out: OAPase IC50

Row | Structure (SMILES) | inhibition at 100 µM [1, 3] | IC50 [2] | IC50 [1, 4] | IC50 [1]
1 | O=P(O)(O)C(c1ccccc1)c1ccccc1C(F)(F)F (centres unmarked) [Cmpd 14, 2-Trifluoromethylphenyl(phenyl)methylphosphonic Acid] | 9% | 8.9 µM | – | –
2 | O=P(O)(O)C(Cc1ccc(-c2ccccc2)cc1)c1cccc2ccccc12 (centres unmarked) [Cmpd 42] | 100% | > 1 µM | 6.3 µM | –
3 | O=P(O)(O)C(c1ccccc1)c1ccc(Cl)cc1 (centres unmarked) [Cmpd 27] | 17% | 142 µM | – | –
4 | O=P(O)(O)C(Cc1ccc(-c2ccccc2)cc1)c1ccccc1 (centres unmarked) [Cmpd 25] | 94% | 15.7 µM | 29 µM | –
5 | O=P(O)(O)C(c1cccc(C(F)(F)F)c1)c1cccc(C(F)(F)F)c1 [Cmpd 20, bis(3-Trifluoromethylphenyl)methylphosphonic Acid] | 28% | 29.3 µM | – | –
6 | Cc1cccc(C(C2CCCCC2)P(=O)(O)O)c1 (centres unmarked) [Cmpd 7] | 16% | – | – | –
7 | O=P(O)(O)C(c1ccc(-c2ccccc2)cc1)C1CCCCC1 (centres unmarked) [Cmpd 6] | 40% | 37 µM | – | –
8 | O=P(O)(O)C(Cc1ccc(C(F)(F)F)cc1)c1cccc(C(F)(F)F)c1 (centres unmarked) [Cmpd 32] | 10% | 66.2 µM | – | –
9 | O=P(O)(O)C(c1ccccc1)c1ccc(F)cc1 (centres unmarked) [Cmpd 21] | 10% | 44.2 µM | – | –
10 | O=P(O)(O)C(c1ccc(-c2ccccc2)cc1)c1ccc(-c2ccccc2)cc1 [Cmpd 28] | 100% | 50 to 100 µM | 17 µM | –
11 | Cc1ccc(C)c(C(c2ccccc2)P(=O)(O)O)c1 (centres unmarked) [Cmpd 19, 2,5-Dimethylphenyl(phenyl)methylphosphonic Acid] | 13% | 36.5 µM | – | –
12 | O=P(O)(O)C(c1ccccc1)c1cccc(Cl)c1 (centres unmarked) [Cmpd 15] | 31% | 15 µM | – | –
13 | COc1ccc(C(c2ccccc2)P(=O)(O)O)cc1 (centres unmarked) [Cmpd 24] | 28% | 36.6 µM | – | –
14 | Cc1ccc2c(C(CC3CCCCC3)P(=O)(O)O)cccc2c1 (centres unmarked) [Cmpd 43] | 73% | > 10 µM | 11.4 µM | –
15 | O=P(O)(O)C(CCc1ccccc1)c1ccccc1 (centres unmarked) [Cmpd 9] | 30% | 13.8 µM | – | –
16 | O=P(O)(O)C(Cc1ccccc1)c1cccc(C(F)(F)F)c1 (centres unmarked) [Cmpd 36] | 12% | 100 µM | – | –
17 | O=P(O)(O)C(c1ccccc1)c1cccc(C(F)(F)F)c1 (centres unmarked) [Cmpd 16] | 26% | 67.1 µM | – | –
18 | O=P(O)(O)C(Cc1ccccc1)c1cccc2ccccc12 (centres unmarked) [Cmpd 45] | 92% | 67.2 µM | 21 µM | –
19 | O=P(O)(O)C(c1ccccc1)c1ccccc1Cl (centres unmarked) [Cmpd 13] | 12% | 30.7 µM | – | –

Row | Structure (SMILES) | inhibition at 100 µM [1, 3] | IC50 [2] | IC50 [1, 4] | IC50 [1]
20 | O=P(O)(O)C(Cc1ccc(F)cc1)c1cccc(C(F)(F)F)c1 (centres unmarked) [Cmpd 37] | 25% | 30.6 µM | – | –
21 | Cc1cccc(CC(c2cccc(C(F)(F)F)c2)P(=O)(O)O)c1 (centres unmarked) [Cmpd 31] | 25% | 36 µM | – | –
22 | Cc1ccccc1C(c1ccccc1)P(=O)(O)O (centres unmarked) [Cmpd 11] | 13% | 37.8 µM | – | –
23 | O=P(O)(O)C(Cc1ccc(-c2ccccc2)cc1)c1cccc(C(F)(F)F)c1 (centres unmarked) [Cmpd 38] | 100% | 35.7 µM | 22 µM | –
24 | O=[N+]([O-])c1ccc(CC(c2cccc3ccccc23)P(=O)(O)O)cc1 (centres unmarked) [Cmpd 47] | 80% | – | – | –
25 | O=P(O)(O)C(c1ccccc1)c1ccc(Br)cc1 (centres unmarked) [Cmpd 26] | 20% | 102 µM | – | –
26 | O=P(O)(O)C(c1ccccc1)c1ccc(C(F)(F)F)cc1 (centres unmarked) [Cmpd 23] | – | 40.8 µM | 100 µM | –
27 | O=P(O)(O)C(Cc1ccc(Cl)cc1)c1cccc2ccccc12 (centres unmarked) [Cmpd 48, 4-Chlorobenzyl(1-naphthyl)methylphosphonic acid] | 94% | 56.9 µM | – | 21 µM
28 | O=[N+]([O-])c1cccc(C(c2ccccc2)P(=O)(O)O)c1 (centres unmarked) [Cmpd 17] | 89% | 17 µM | – | –
29 | O=P(O)(O)C(Cc1ccccc1)c1ccc2ccccc2c1 (centres unmarked) [Cmpd 40] | 19% | > 1 µM | – | –
30 | O=P(O)(O)C(Cc1cccc(C(F)(F)F)c1)c1cccc(C(F)(F)F)c1 (centres unmarked) [Cmpd 35, 3-Trifluoromethylphenyl(3-trifluoromethylbenzyl)methylphosphonic Acid] | – | 9 µM | 100 µM | –
31 | O=C(c1ccccc1)C(C(=O)c1ccccc1)(c1cccc2ccccc12)P(=O)(O)O [Cmpd 55, bis(Benzoyl)(1-naphthyl)methylphosphonic Acid] | 96% | > 1 µM | – | 1.4 µM
32 | Cc1cccc(C(c2ccccc2)P(=O)(O)O)c1 (centres unmarked) [Cmpd 18] | 4% | 14 µM | – | –
33 | O=P(O)(O)C(c1ccccc1)C1CCCCC1 (centres unmarked) [Cmpd 4] | – | 6.9 µM | 1.4 µM | –
34 | O=P(O)(O)C(c1ccccc1)C1CCCCCC1 (centres unmarked) [Cmpd 5] | 6% | 23.5 µM | – | –
35 | Cc1ccc(CC(c2cccc3ccccc23)P(=O)(O)O)cc1 (centres unmarked) [Cmpd 46] | 75% | – | – | –
36 | COc1ccc(CC(c2cccc3ccccc23)P(=O)(O)O)cc1 (centres unmarked) [Cmpd 44] | 73% | – | – | –
37 | Cc1ccccc1C(C1CCCCC1)P(=O)(O)O (centres unmarked) [Cmpd 8] | 16% | – | – | –
